Test results from ChEMBL document CHEMBL3045926, “Exacerbative role of vitamn A on radiation damage in vivo” (2008).

How the values were obtained:
Format in all cases: functional
Cavia porcellus [1] = experiment: (§1) Antioxidant activity against gamma irradiation-induced ROS production in Cavia porcellus (guinea pig) liver assessed as thiobarbituric acid reactive substance level per g tissue at 50 U/Kg, ip administered 2 days prior to irradiation-challenge measured after 30 min by spectroscopic analysis (reference value: 168.75 +/- 12.54 nmol per g tissue)
Cavia porcellus [2] = experiment: as §1, with “superoxide dismutase” for “thiobarbituric acid reactive substance”, “mg protein” for “g tissue”, “8.72” for “168.75”, “1.94 U” for “12.54 nmol”, “mg protein)” for “g tissue)”
Cavia porcellus [3] = experiment: Antioxidant activity against gamma irradiation-induced ROS production in Cavia porcellus (guinea pig) liver assessed as glutathione peroxidase level per mg protein at 50 U/Kg, ip administered 2 days prior to irradiation-challenge measured after 30 min by spectroscopic analysis (reference value: 0.76 +/- 0.06 U per mg protein)
Cavia porcellus [4] = experiment: Antioxidant activity against gamma irradiation-induced ROS production in Cavia porcellus (guinea pig) liver assessed as nitric oxide level at 50 U/Kg, ip administered 2 days prior to irradiation-challenge measured after 30 min by ESR spectroscopic analysis (reference value: 0.3 +/- 0.08 a.u)

SMILES: CC1=C(/C=C/C(C)=C/C=C/C(C)=C/CO)C(C)(C)CCC1 [RETINOL]
- Activity (Cavia porcellus [1]): 197 nmol/g
- Activity (Cavia porcellus [2]): 6.66 U/mg
- Activity (Cavia porcellus [3]): 0.39 U/mg
- Activity (Cavia porcellus [4]): 1.04 a.u.
